Measured values as given in patent publication US12281122B1, “PI3K inhibitors” (Cogent Biosciences, Inc., priority 2023, dated 2025).

Experiments:
[1] = tested on: SKBR3 (PI3Kα-Wild Type) cell line; assay: HTRF phospho-AKT(S473) cell assay in SKBR3 cells; assay type: cell-based, human; conditions: Homo sapiens, SK-BR-3, 2 hours compound incubation, PDGF-BB stimulated
Summary of the method: (§1)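 Cells plated overnight (T47D in RPMI/10% FBS/0.2 units/mL insulin; SKBR3 in McCoy's 5A/10% FBS), then given 12-point 1:3 compound series (top 5 μM T47D, 10 μM SKBR3; ≤0.5% DMSO) for 2 h at 37° C. SKBR3 stimulated with 70 ng/ml PDGF-BB for final 15 min. Lysate pAKT(S473) by HTRF; IC50 calculated.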

[2] = tested on: T47D (PI3Kα-H1047R) cell line; assay: HTRF phospho-AKT(S473) cell assay in T47D cells; assay type: cell-based, human; conditions: Homo sapiens, 2 hours compound incubation
Summary of the method: as §1

[3] = HTRF phospho-AKT(S473), SKBR3 (PI3Kα-Wild Type) cells
[4] = HTRF phospho-AKT(S473), T47D (PI3Kα-H1047R) cells
[5] = SKBR3 (PI3Kα-Wild Type) cells, HTRF phospho-AKT(S473)
[6] = T47D (PI3Kα-H1047R) cells, HTRF phospho-AKT(S473)

## Cc1cc([C@@H](C)Nc2ccc(Cl)nc2C(=O)NS(C)(=O)=O)c2nc(N3CC[C@H](Oc4ncc(F)cn4)C3)n(C)c(=O)c2c1 [Compound 537, 6-chloro-3-(((R)-1-(2-((S)-3-((5-fluoropyrimidin-2-yl)oxy)pyrrolidin-1-yl)-3,6-dimethyl-4-oxo-3,4-dihydroquinazolin-8-yl)ethyl)amino)-N-(methylsulfonyl) picolinamide]
[1]; [3]
  IC50: ≥ 5000 nM
[2]; [4]
  IC50: 250 to 500 nM

## Cc1cc([C@@H](C)Nc2ccc(Cl)nc2C(=O)NS(C)(=O)=O)c2nc(N3CCC[C@@H](c4cncc(C#N)c4)C3)n(C)c(=O)c2c1 (relative stereo) [Compound 263, 6-chloro-3-(((R)-1-(2-((R*)-3-(5-cyanopyridin-3-yl)piperidin-1-yl)-3,6-dimethyl-4-oxo-3,4-dihydroquinazolin-8-yl)ethyl)amino)-N-(methylsulfonyl) picolinamide]
[1]; [5]
  IC50: 1000 to 5000 nM
[2]; [6]
  IC50: < 250 nM

## Cc1cc([C@@H](C)Nc2ccc(Cl)nc2C(=O)NS(C)(=O)=O)c2nc(N3CCC(c4cnc(C)cn4)CC3)n(C)c(=O)c2c1 [Compound 272, (R)-6-chloro-3-((1-(3,6-dimethyl-2-(4-(5-methylpyrazin-2-yl)piperidin-1-yl)-4-oxo-3,4-dihydroquinazolin-8-yl)ethyl)amino)-N-(methylsulfonyl) picolinamide]
[1]; [5]
  IC50: 1000 to 5000 nM
[2]; [6]
  IC50: < 250 nM

## Cc1cc([C@@H](C)Nc2ccc(Cl)nc2C(=O)NS(C)(=O)=O)c2nc(N3C[C@@H]4[C@H](C3)[C@H]4c3nnc(C)s3)n(C)c(=O)c2c1 [Compound 598, 6-chloro-3-(((R)-1-(3,6-dimethyl-2-((1R,5S,6R)-6-(5-methyl-1,3,4-thiadiazol-2-yl)-3-azabicyclo[3.1.0]hexan-3-yl)-4-oxo-3,4-dihydroquinazolin-8-yl)ethyl)amino)-N-(methylsulfonyl) picolinamide]
[1]; [3]
  IC50: 1000 to 5000 nM
[2]; [4]
  IC50: < 250 nM

## Cc1cc([C@@H](C)Nc2ccc(Cl)nc2C(=O)NS(C)(=O)=O)c2nc(N3Cc4cn(C(F)F)nc4C3)n(C)c(=O)c2c1 [Compound 176, (R)-6-chloro-3-((1-(2-(2-(difluoromethyl)-2,6-dihydropyrrolo[3,4-c]pyrazol-5(4H)-yl)-3,6-dimethyl-4-oxo-3,4-dihydroquinazolin-8-yl)ethyl)amino)-N-(methylsulfonyl) picolinamide]
[1]; [5]
  IC50: 1000 to 5000 nM
[2]; [6]
  IC50: < 250 nM

## Cc1cc([C@@H](C)Nc2ccc(Cl)nc2C(=O)NS(C)(=O)=O)c2nc([C@@H]3CCCN(c4cccnc4)C3)n(C)c(=O)c2c1 (relative stereo) [Compound 211, 6-chloro-3-(((R)-1-(3,6-dimethyl-4-oxo-2-((R*)-1-(pyridin-3-yl)piperidin-3-yl)-3,4-dihydroquinazolin-8-yl)ethyl)amino)-N-(methylsulfonyl) picolinamide]
[1]; [5]
  IC50: 1000 to 5000 nM
[2]; [6]
  IC50: < 250 nM

## Cc1cc([C@@H](C)Nc2ccc(Cl)nc2C(=O)NS(C)(=O)=O)c2nc(N3CC[C@H](Oc4ccc(C)nn4)C3)n(C)c(=O)c2c1 [Compound 527, 6-chloro-3-(((R)-1-(3,6-dimethyl-2-((S)-3-((6-methylpyridazin-3-yl)oxy)pyrrolidin-1-yl)-4-oxo-3,4-dihydroquinazolin-8-yl)ethyl)amino)-N-(methylsulfonyl) picolinamide]
[1]; [3]
  IC50: 1000 to 5000 nM
[2]; [4]
  IC50: < 250 nM

## Cc1cc([C@@H](C)Nc2ccc(Cl)nc2C(=O)NS(C)(=O)=O)c2nc(-c3ccc(-c4ccn(C)n4)c(F)c3)n(C)c(=O)c2c1 [Compound 787, (R)-6-chloro-3-((1-(2-(3-fluoro-4-(1-methyl-1H-pyrazol-3-yl)phenyl)-3,6-dimethyl-4-oxo-3,4-dihydroquinazolin-8-yl)ethyl)amino)-N-(methylsulfonyl) picolinamide]
[1]; [3]
  IC50: 1000 to 5000 nM
[2]; [4]
  IC50: < 250 nM

## Cc1cc([C@@H](C)Nc2ccc(Cl)nc2C(=O)NS(C)(=O)=O)c2nc(N3Cc4cnn(C(F)F)c4C3)n(C)c(=O)c2c1 [Compound 172, (R)-6-chloro-3-((1-(2-(1-(difluoromethyl)-4,6-dihydropyrrolo[3,4-c]pyrazol-5(1H)-yl)-3,6-dimethyl-4-oxo-3,4-dihydroquinazolin-8-yl)ethyl)amino)-N-(methylsulfonyl) picolinamide]
[1]; [5]
  IC50: 1000 to 5000 nM
[2]; [6]
  IC50: < 250 nM

## Cc1cc([C@@H](C)Nc2ccc(Cl)nc2C(=O)NS(C)(=O)=O)c2nc(N3C[C@@H]4C[C@H]3CN4c3ccc(C#N)cn3)n(C)c(=O)c2c1 [Compound 580, 6-chloro-3-(((R)-1-(2-((1S,4S)-5-(5-cyanopyridin-2-yl)-2,5diazabicyclo [2.2.1]heptan-2-yl)-3,6-dimethyl-4-oxo-3,4-dihydroquinazolin-8-yl)ethyl)amino)-N-(methylsulfonyl) picolinamide]
[1]; [3]
  IC50: ≥ 5000 nM
[2]; [4]
  IC50: 250 to 500 nM

## Cc1cc([C@@H](C)Nc2ccc(Cl)nc2C(=O)NS(C)(=O)=O)c2nc(N3CC[C@@H](c4ccnc(C)n4)C3)n(C)c(=O)c2c1 (relative stereo) [Compound 600, 6-chloro-3-(((R)-1-(3,6-dimethyl-2-((R*)-3-(2-methylpyrimidin-4-yl)pyrrolidin-1-yl)-4-oxo-3,4-dihydroquinazolin-8-yl)ethyl)amino)-N-(methylsulfonyl) picolinamide]
[1]; [3]
  IC50: 1000 to 5000 nM
[2]; [4]
  IC50: 250 to 500 nM

## Cc1cc([C@@H](C)Nc2ccc(Cl)nc2C(=O)NS(C)(=O)=O)c2nc(N3CCC(c4cnccn4)CC3)n(C)c(=O)c2c1 [Compound 398, (R)-6-chloro-3-((1-(3,6-dimethyl-4-oxo-2-(4-(pyrazin-2-yl)piperidin-1-yl)-3,4-dihydroquinazolin-8-yl)ethyl)amino)-N-(methylsulfonyl) picolinamide]
[1]; [5]
  IC50: ≥ 5000 nM
[2]; [6]
  IC50: 250 to 500 nM

## Cc1cc2c(=O)n(C)c(-c3ccc4nn(C)cc4c3)nc2c([C@@H](C)Nc2ccc(Cl)nc2C(=O)NS(C)(=O)=O)n1 [Compound 840, (R)-6-chloro-3-((1-(3,6-dimethyl-2-(2-methyl-2H-indazol-5-yl)-4-oxo-3,4-dihydropyrido[3,4-d]pyrimidin-8-yl)ethyl)amino)-N-(methylsulfonyl) picolinamide]
[1]; SKBR3 (PI3Kα-Wild Type) cell line, phospho-AKT(S473) HTRF
  IC50: 1000 to 5000 nM
[2]; T47D (PI3Kα-H1047R) cell line, phospho-AKT(S473) HTRF
  IC50: 1000 to 5000 nM

## Cc1cc([C@@H](C)Nc2ccc(Cl)nc2C(=O)NS(C)(=O)=O)c2nc(N3CC[C@H](c4ccn(C)n4)CC3(C)C)n(C)c(=O)c2c1 (relative stereo) [Compound 323, 6-chloro-3-(((R)-1-(2-((R*)-2,2-dimethyl-4-(1-methyl-1H-pyrazol-3-yl)piperidin-1-yl)-3,6-dimethyl-4-oxo-3,4-dihydroquinazolin-8-yl)ethyl)amino)-N-(methylsulfonyl) picolinamide]
[1]; [5]
  IC50: ≥ 5000 nM
[2]; [6]
  IC50: 250 to 500 nM

## Cc1cc([C@@H](C)Nc2ccc(Cl)nc2C(=O)NS(C)(=O)=O)c2nc(N3CCC(n4nc(C)cc4F)CC3)n(C)c(=O)c2c1 [Compound 490, (R)-6-chloro-3-((1-(2-(4-(5-fluoro-3-methyl-1H-pyrazol-1-yl)piperidin-1-yl)-3,6-dimethyl-4-oxo-3,4-dihydroquinazolin-8-yl)ethyl)amino)-N-(methylsulfonyl) picolinamide]
[1]; [3]
  IC50: ≥ 5000 nM
[2]; [4]
  IC50: 250 to 500 nM

## Cc1cc([C@@H](C)Nc2ccc(Cl)nc2C(=O)NS(C)(=O)=O)c2nc(N3[C@@H]4CC[C@H]3C[C@@H](n3ncc5ccccc53)C4)n(C)c(=O)c2c1 [Compound 696, 3-(((R)-1-(2-((1R,3R,5S)-3-(1H-indazol-1-yl)-8-azabicyclo[3.2.1]octan-8-yl)-3,6-dimethyl-4-oxo-3,4-dihydroquinazolin-8-yl)ethyl)amino)-6-chloro-N-(methylsulfonyl) picolinamide]
[1]; [3]
  IC50: ≥ 5000 nM
[2]; [4]
  IC50: 500 to 1000 nM

## Cc1cc([C@@H](C)Nc2ccc(Cl)nc2C(=O)NS(C)(=O)=O)c2nc(-c3cccc(Cl)c3Cl)n(C)c(=O)c2c1 [Compound 777, (R)-6-chloro-3-((1-(2-(2,3-dichlorophenyl)-3,6-dimethyl-4-oxo-3,4-dihydroquinazolin-8-yl)ethyl)amino)-N-(methylsulfonyl) picolinamide]
[1]; [3]
  IC50: ≥ 5000 nM
[2]; [4]
  IC50: 500 to 1000 nM

## CC(=O)Nc1ccc(C2CCN(c3nc4c([C@@H](C)Nc5ccc(Cl)nc5C(=O)NS(C)(=O)=O)cc(C)cc4c(=O)n3C)CC2)cn1 [Compound 254, (R)-3-((1-(2-(4-(6-acetamidopyridin-3-yl)piperidin-1-yl)-3,6-dimethyl-4-oxo-3,4-dihydroquinazolin-8-yl)ethyl)amino)-6-chloro-N-(methylsulfonyl) picolinamide]
[1]; [5]
  IC50: 1000 to 5000 nM
[2]; [6]
  IC50: < 250 nM

## Cc1cc([C@@H](C)Nc2ccc(Cl)nc2C(=O)NS(C)(=O)=O)c2nc(N3C[C@@H]4[C@H](C3)[C@H]4c3c(F)cnn3C)n(C)c(=O)c2c1 [Compound 424, 6-chloro-3-(((R)-1-(2-((1R,5S,6R)-6-(4-fluoro-1-methyl-1H-pyrazol-5-yl)-3-azabicyclo[3.1.0]hexan-3-yl)-3,6-dimethyl-4-oxo-3,4-dihydroquinazolin-8-yl)ethyl)amino)-N-(methylsulfonyl) picolinamide]
[1]; [5]
  IC50: ≥ 5000 nM
[2]; [6]
  IC50: 250 to 500 nM

## Cc1cc([C@@H](C)Nc2ccc(Cl)nc2C(=O)NS(C)(=O)=O)c2nc(N3Cc4cn(-c5ncccc5C)nc4C3)n(C)c(=O)c2c1 [Compound 701, (R)-6-chloro-3-((1-(3,6-dimethyl-2-(2-(3-methylpyridin-2-yl)-2,6-dihydropyrrolo[3,4-c]pyrazol-5(4H)-yl)-4-oxo-3,4-dihydroquinazolin-8-yl)ethyl)amino)-N-(methylsulfonyl) picolinamide]
[1]; [3]
  IC50: ≥ 5000 nM
[2]; [4]
  IC50: 250 to 500 nM
